{
  "source": "patent US10688153B2",
  "about": "“Peptides and method for treatment of cardiac arrest” (THE BOARD OF TRUSTEES OF THE UNIVERSITY OF ILLINOIS, priority 2015, dated 2020)",
  "key": {"C57BL6 mice [1]": {"tested_on": "C57BL6 mice", "experiment": "Potassium-induced 8-minute SCA protocol, timing of administration during CPR or after ROSC (Example 2)", "format": "in vivo, mouse", "conditions": "for MAP: 7.5 mg/kg IV administered after ROSC", "protocol": "To determine timing of modified peptide administration, TAT-PTEN9c was administrated during CPR or after ROSC. C57BL6 mice were subjected to an established potassium-induced 8-minute SCA protocol (Li, et al. (2015) Am. J. Physiol. Heart Circ. Physiol. 308:H1414-22). Mean arterial blood pressure (MAP) was recorded until 4 hours after successful CPR. TAT-PTEN9c (7.5 mg/kg) or saline (NS) was given intravenously (IV) during CPR and immediately after ROSC."}, "[2]": {"tested_on": "Akt phosphorylation in mouse cardiomyocytes", "experiment": "Western blot of Akt phosphorylation in mouse cardiomyocytes exposed to H2O2 or IGF-1", "format": "cell-based", "excerpt": "(§1) Mouse cardiomyocytes were isolated from 1-3 day old mouse pups according to known methods (Zhu, et al. (2014) PLoS One 9:e95622). Western blot analysis was used to determine the efficacy of a representative peptide of the invention (TAT-PTEN9c) for enhancing Akt phosphorylation in mouse cardiomyocytes exposed to oxidant (H2O2) or IGF-1. C57BL6 mice were subjected to an established potassium-induced 8-minute SCA protocol (Li, et al. (2015) Am. J. Physiol. Heart Circ. Physiol. 308:H1414-22). Mean arterial blood pressure (MAP), end-tidal CO2 (EtCO2), body temperature and electrocardiogram (ECG) were recorded until […] after successful cardiopulmonary resuscitation (CPR). TAT-PTEN9c (7.5 mg/kg) or saline was given intravenously (IV) immediately after ROSC. A mouse survival curve was generated by Kaplan-Meyer analysis. IV administration of TAT-GFP was used to measure the kinetics of heart and brain tissue TAT protein delivery."}, "C57BL6 mice [3]": {"tested_on": "C57BL6 mice", "experiment": "Potassium-induced 8-minute SCA protocol, peptide IV immediately after ROSC (Example 1)", "format": "in vivo, mouse", "excerpt": "as §1"}, "C57BL6 mice [4]": {"tested_on": "C57BL6 mice", "experiment": "Potassium-induced SCA protocol, nicotinamide during CPR plus TAT-PTEN9c after ROSC (Example 3)", "format": "in vivo, mouse", "conditions": "about 12 minute down time", "protocol": "The benefit of co-administration of nicotinamide (NAM) with TAT-PTEN9c was evaluated. C57BL6 mice were subjected to an established potassium-induced 8-minute SCA protocol. Nicotinamide (Vitamin B3) was administered during CPR and TAT-PTEN9c was administered after ROSC with about a 12 minute down time for each group."}, "cell death": {"tested_on": "cell death", "conditions": "Zhu et al. 2014, cited from earlier work"}, "mouse model of SCA [5]": {"tested_on": "mouse model of SCA", "experiment": "Blood sorbitol and taurine concentrations in mouse model of SCA", "format": "in vivo", "excerpt": "Metabolism alteration and energy production are critical outcomes following SCA. Using a mouse model of SCA (Li, et al. (2015) Am. J. Physiol. Heart Circ. Physiol. 308:H1414-22), several metabolic compounds were identified as diagnostic markers for use in guiding the selection of treatment protocols (e.g., active cooling, therapeutic hypothermia, or modified PDZ binding domain peptide therapies)."}, "mouse model of SCA [6]": {"tested_on": "mouse model of SCA", "conditions": "Li et al. 2015; cited from earlier work"}, "PTEN": {"target": "PTEN (Homo sapiens, UniProt P60484)", "sequence (P60484 whole entry, species assumed)": "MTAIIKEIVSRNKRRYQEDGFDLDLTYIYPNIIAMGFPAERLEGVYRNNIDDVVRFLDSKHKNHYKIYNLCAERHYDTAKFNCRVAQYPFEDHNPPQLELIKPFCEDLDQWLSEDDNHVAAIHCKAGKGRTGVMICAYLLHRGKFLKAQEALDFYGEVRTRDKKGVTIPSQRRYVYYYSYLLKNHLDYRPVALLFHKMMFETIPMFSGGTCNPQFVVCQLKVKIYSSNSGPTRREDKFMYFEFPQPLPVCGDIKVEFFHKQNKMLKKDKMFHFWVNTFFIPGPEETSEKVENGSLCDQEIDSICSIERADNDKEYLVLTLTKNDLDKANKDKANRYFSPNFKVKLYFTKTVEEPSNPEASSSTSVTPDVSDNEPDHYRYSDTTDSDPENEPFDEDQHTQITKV", "conditions": "cited from earlier work"}, "[7]": {"conditions": "240 minutes, 7.5 mg/kg IV immediately after ROSC"}},
  "note": "Ends that are not written are not given here.",
  "data": [
    {"compound": "YGRKKRRQRRRDQHSQITKV (not fully specified (C-terminus)) [TAT-PTEN9c, 20-residue peptide: Tat transduction domain plus C-terminal 9 residues of mouse PTEN]", "values": [
      {"measurement": "resuscitation rate", "setting": "C57BL6 mice [1]; 7.5 mg/kg IV administered during CPR", "value": "no improvement"},
      {"measurement": "MAP", "setting": "C57BL6 mice [1]; 30 minutes after ROSC", "value": "65.2±1.1", "unit": "mmHg"},
      {"measurement": "MAP", "setting": "C57BL6 mice [1]; 4 hours after ROSC, p<0.05 vs NS", "value": "49.9±0.7", "unit": "mmHg"},
      {"measurement": "time to Akt activation after administration", "setting": "[2]; FIG. 1C", "value": "≤ 10", "unit": "min"},
      {"measurement": "Akt activation in response to H2O2", "setting": "[2]; H2O2, concentration-dependent, FIG. 1A", "value": "enhances Akt activation"},
      {"measurement": "Akt activation in response to IGF-1", "setting": "[2]; IGF-1, concentration-dependent, FIG. 1B", "value": "enhances Akt activation"},
      {"measurement": "brain tissue sorbitol content", "setting": "C57BL6 mice [3]; 15 (R15) and 30 (R30) minutes after ROSC, vs saline control (NS), FIG. 3", "value": "significantly decreased"},
      {"measurement": "EtCO2", "setting": "C57BL6 mice [3]; [7]", "value": "36.2 ± 6.7", "unit": "mmHg"},
      {"measurement": "Heart Rate", "setting": "C57BL6 mice [3]; [7]", "value": "502.0 ± 62.2", "unit": "bpm"},
      {"measurement": "MAP", "setting": "C57BL6 mice [3]; [7]", "value": "52.7 ± 9.3", "unit": "mmHg"},
      {"measurement": "Survival (%)", "setting": "C57BL6 mice [3]; [7]", "value": 66.7, "unit": "%"},
      {"measurement": "survival of mice after cardiac arrest", "setting": "C57BL6 mice [3]; administered immediately after ROSC, vs saline control, FIG. 4", "value": "significantly improves survival"}
    ]},
    {"compound": "NC(=O)c1cccnc1", "note": "[nicotinamide]", "values": [
      {"measurement": "survival time of all mice", "setting": "C57BL6 mice [4]", "value": "less than 1 hours"}
    ]},
    {"compound": "O=C(O)c1ncccc1O.O=C(O)c1ncccc1O.[O]=[V][O-]", "note": "[VO-OHpic]", "values": [
      {"measurement": "reduction in cell death", "setting": "cell death; I/R injury", "value": "almost four-fold reduction"},
      {"measurement": "phosphorylated Akt", "setting": "cell death", "value": "significant increase"},
      {"measurement": "blood sorbitol concentration", "setting": "mouse model of SCA [5]", "value": "reduced"},
      {"measurement": "blood taurine concentration", "setting": "mouse model of SCA [5]", "value": "reduced"},
      {"measurement": "recovery and survival", "setting": "mouse model of SCA [6]", "value": "improved recovery and survival"},
      {"measurement": "inhibition of PTEN", "setting": "PTEN", "value": "potent inhibition"}
    ]}
  ]
}
